Data as given in PMC5618791, “Double quick, double click reversible peptide “stapling”” (Chemical Science, 2017).
Positions of bridges follow the written chain, without caps; N, C: chain ends. Residues, ends and D or L forms follow the SMILES beside them.

How the values were obtained:
[1] = Circular dichroism, % helicity; type: physicochemical; conditions: CD, peptide 10-20 μM, calculated from MRE at 222 nm
Experimental: Samples were prepared in two different solvent systems (30% TFE:H2O, 30% CH3CN:water) to concentrations between 10 - 20 μM (Figure S 23). Considering the high number of hydrophobic residues in BID and S peptides, organic co-solvents were used to ensure good solubility and avoid aggregation at concentrations high enough for CD analyses. DMSO stocks of peptides were not used for CD due to its high absorbance below 230 nm.
The raw circular dichroism data obtained for the peptides was processed by the subtraction of the solvent signal and converted into a mean residue ellipticity:
Where = molar ellipticity[θ]MRE per residue, θ = circular dichroism at a given wavelength, c = molar concentration, l = path length in cm, R = number of residues in the peptide sequence.
Calculation of % helicity was performed by the following equation:[4]
Where: θH = Theoretical MRE for 100% helicity at 222 nm, θ0 = Theoretical MRE for 100% helicity at 222 nm at 0 °C = –44000, (∂θ/∂T) = temperature dependence of infinite helix = +250, T = temperature in °C, x = 3, Nr = number of residues in the peptide.
In both solvent systems, it is noteworthy that STA-peptides are more helical than RED-peptides or WT-peptides; with the exception of constrained S-Cys-peptides. The use of TFE as co-solvent in water enhances the α-helicity of both series of peptides compared to the use of acetonitrile in water. […]
thus bioactive) conformation. The S peptides show a low helix propensity which is consistent […]
Figure S 23: CD spectra A. and B. in 30% TFE:H 2O; C. and D. in 30% CH3CN:H 2O.
Table 1: Percentage of helicity in the three solvent systems […]
(also on this page, place not known: Molar residue ellipticity (deg.cm 2 .dmol -1 ) Molar residue ellipticity (deg.cm 2 .dmol -1 ) Molar residue ellipticity (deg.cm 2 .dmol -1 ) Molar residue ellipticity (deg.cm 2 .dmol -1 ) TFE:H2O; CH3CN:H2O.)

[2] = biological target: T1, RNase S protein (Bos taurus, UniProt P61823); test: RNA degradation assay, restoration of S protein activity; type: biochemical; conditions: EtBr-labelled RNA, S peptides 0.1-2 μM, 50 mM Tris, 100 mM NaCl, pH 7.50, 60 min, room temperature, fluorescence, triplicate
T1 construct: S protein 21-124; made in house; host or cells: proteolytic fragment of RNase A (subtilisin digestion)
T1 sequence (P61823 47-150): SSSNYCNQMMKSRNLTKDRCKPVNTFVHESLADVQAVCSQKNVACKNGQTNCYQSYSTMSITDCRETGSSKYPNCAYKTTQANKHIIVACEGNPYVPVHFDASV
Experimental: Fig. 5 Biophysical and bioactivity analyses of WT-S and S derived peptides 3–4a,c. (a) Circular dichroism spectra recorded in water (30% TFE); (b) RNA degradation assay showing the restoration of S protein activity. S protein was used as a negative control, and RNase A as a positive control. (50 mM Tris, 100 mM NaCl, pH 7.50).
RNase A (10 mg) in Hepes (600 µL, 100 mM; pH = 8.0) was digested by subtilisin (5 mg/mL, 10 µL) for 4 hrs at 0 °C. After which, the buffer was acidified with a solution of HCl (1 M) to reach pH = 3. The acidic solution was stirred for 1 h at 2 °C. The reaction was monitored by HPLC using the Jupiter µ Proteo 90 A analytical column using a gradient (0-60% over 30 min). […]
RNA degradation assays were performed in 96-well black plates (Greiner Bio-one). Each experiment was run in triplicate and the fluorescence was measured using a Perkin Elmer EnVisionTM 2103 MultiLabel plate reader, with an excitation and emission at 510 nm and at […]
The buffer used in this enzymatic assay was Tris buffer (50 mM of Tris, 100 mM of NaCl, pH = 7.5). The adequate quantity of buffer was first added to each well to reach a total volume of 200 µL (150 µL for controls, 149 µL for 0.1 µM of S peptides, 148 µL for 0.2 µM of S peptides, 145 µL for 0.5 µM of S peptides, 140 µL for 1 µM of S peptides, 130 µL for 2 µM of S peptides). […]

## CSCC[C@H](NC(=O)[C@H](Cc1c[nH]cn1)NC(=O)[C@H](CCC(N)=O)NC(=O)[C@@H]1CSSC[C@H](NC(=O)[C@H](C)NC(=O)[C@H](C)NC(=O)[C@@H](NC(=O)[C@H](CCC(=O)O)NC(=O)[C@H](CCCCN)NC(C)=O)[C@@H](C)O)C(=O)N[C@@H](CCCCN)C(=O)N[C@@H](Cc2ccccc2)C(=O)N[C@@H](CCC(=O)O)C(=O)N1)C(=O)N[C@@H](CC(=O)O)C(=O)N[C@@H](CO)C(N)=O [2c] (Ac-KETAACKFECQHMDS-NH2; disulfide 6-10)
[1]; 30% CH3CN:H2O
  Percentage of helicity, 30% CH3CN:H2O: 0%
[1]; 30% TFE:H2O
  Percentage of helicity, 30% TFE:H2O: 0%
[2]
  Restoration of S protein (RNase) enzymatic activity: failure to restore S protein activity
